Values joined by “and” are separate entries in the source; they are usually repeats but may differ in a detail not shown here. Equal entries are not always repeated. Where two headings read alike, the source gives them in different places.
Legend:
[1] = tested on: lactating dairy cows; settings: cited from earlier work; for percentage of cows with complete CL regression (<0.4 ng/mL 56 hours after PGF2α): 7 day Ovsynch
[2] = tested on: lactating dairy cows; settings: cited from earlier work
[3] = tested on: lactating dairy cows; assay: Combined analysis of Experiments 1 and 2: effect of second cloprostenol sodium injection on P/AI; type: in vivo, cattle; settings: Experiments 1 and 2 combined
Source text: Experiment 1 and Experiment 2 were done with a similar experimental design and therefore results were combined in order to more thoroughly test the effect of a second cloprostenol sodium injection in the Ovsynch protocol on P/AI. There was no effect of the second PGF on P/AI in primiparous cows (P=0.304). However in multiparous cows, the second cloprostenol sodium injection increased (P=0.046) P/AI by about 12%. This effect of a second cloprostenol sodium injection on P/AI was also observed when all cows were included in the analysis (P=0.042). The final combined analysis of both experiments provided the most statistical power to test our main hypothesis (Table 6). Overall, there was increased (P=0.042) P/AI with a 9.6% relative increase in fertility. As in both experiments, the effect was only statistically detectable in multiparous (P=0.046) and not in primiparous (P=0.304) cows. In our study an effect of parity on fertility was only detected in cows treated with Ovsynch (P=0.04) and not in cows treated with Ovsynch with the second PGF treatment (P=0.17). Future studies should directly test whether parity effects with Ovsynch-type protocols are related primarily to differences in CL regression between parities or reflect other fertility differences related to parity.

[4] = tested on: lactating dairy cows; assay: Experiment 2: P/AI on 11 commercial dairies, Ovsynch vs. Ovsynch + second cloprostenol sodium injection; type: in vivo, cattle
Description: An experiment was performed on 11 commercial dairies in different locations in the United States: 3 dairies in Wisconsin; 3 dairies in California; 2 dairies in New York; 1 dairy in Pennsylvania; 1 dairy in New Mexico; and 1 dairy in Texas. Although overall management was quite different for each herd, each herd used the same reproductive management protocol during this experiment. Cows were randomly assigned within herd, parity, and date to one of three treatment groups at about 40 to about 46 days in milk. One of the treatment groups, Presynch-Ovsynch with heat detection, was not considered in the present analysis. Therefore only two treatment groups were utilized for all analyses, as shown in the diagram for Experiment 2 in FIG. 2.
All animals were synchronized using a GnRH composition (about 100 mcg of gonadorelin acetate per mL, GONAbreed®, Parnell Technologies Pty Ltd, Alexandria, Australia) and a PGF2α analog composition (about 250 mcg of cloprostenol sodium per mL, estroPLAN®, Parnell Technologies Pty Ltd, Alexandria, Australia).
(§1) One treatment group began at about 47 to about 53 days in milk where the cows received a first 1 mL intramuscular injection of a gonadorelin acetate composition. At about 54 to about 60 days in milk, the cows received a first 2 mL intramuscular injection of a cloprostenol sodium composition. At about 56 to about 62 days in milk (about 56 hours after the first injection of the cloprostenol sodium composition), the cows received a second 1 mL intramuscular injection of a gonadorelin acetate composition. And at about 57 to about 63 days in milk (about 16 hours after the second injection of the gonadorelin acetate composition), the animals received AI, concluding the Ovsynch phase.
as §1, with “The other treatment group” for “One treatment group”, “a first 2 mL intramuscular injection of a cloprostenol sodium composition. At about 55 to about 61 days in milk (about 24 hours after the first injection of the cloprostenol sodium composition), the cows received a second 2 mL” for “a first 2 mL”
Pregnancy diagnosis was performed with ultrasound utilizing the normal schedule for each herd (Wisconsin and Pennsylvania herds, 31-33 days after AI; California, New York, New Mexico, and Texas herds, 37-43 days after AI). Data on all treatments, AI, and pregnancy diagnosis were recorded for each individual cow in most cases (n=1,912). In some cows, data was extrapolated from other recorded data due to missing one treatment recording (n=110) or two or more treatment recordings in a cow (n=126). Pregnancy was based on a verified pregnancy diagnosis. Non-pregnancy was based on absence of pregnancy at a pregnancy diagnosis or a rebreeding to an estrus prior to pregnancy diagnosis. Statistical analyses were performed using PROC Logistic in SAS. Treatment and parity were forced into the model and factors were kept in the model if they were significant at P<0.15.

[5] = dose from 500 to 750 μg, 7 day protocol

For `O=C(O)CCC/C=C\CC1C(O)CC(O)C1/C=C/C(O)COc1cccc(Cl)c1` (centres unmarked) [cloprostenol sodium], the “percentage of cows with complete CL regression” value ([1]; dinoprost 25 mg, cloprostenol 0.5 mg) is listed as 79%, the “effect on CL regression of increasing the dose” value [1, 5] is listed as “increased CL regression in multiparous but not primiparous cows” and the “effect on fertility of increasing the dose” value [2, 5] is listed as “tended to increase fertility”. For the same compound, the “increase in P/AI by second cloprostenol sodium injection” value ([3]; multiparous cows) was “about 12%”, the “Effect of second cloprostenol sodium injection, Difference in P/AI” value ([4]; All Multiparous) was “+10.65% (P = 0.073)” and the “Effect of second cloprostenol sodium injection, Difference in P/AI” value ([4]; Fourth or Greater lactation) was “+0.09% (P = 0.517)”. For the same compound, the “P/AI, % (n/n)” value ([4]; Ovsynch (one cloprostenol sodium injection), farm CA-01) was 29.4%, the “percentage of cows pregnant per AI” value ([4]; Ovsynch (one injection), All Multiparous) was 32.01 (259/809) % and the “percentage of cows pregnant per AI” value ([4]; Ovsynch (one injection), Fourth or Greater lactation) was 30.09 (65/216) %. For the same compound, the “percentage of cows pregnant per AI” value ([4]; Ovsynch (one injection), Primiparous) was 37.07 (99/267) %, the “percentage of cows pregnant per AI” value ([4]; Ovsynch (one injection), Second and Third lactation) was 32.71 (194/593) % and the “P/AI, % (n/n)” value ([4]; Ovsynch (one injection), Total of 11 farms) was 33.3%. For the same compound, the “P/AI, % (n/n)” value ([4]; Ovsynch (one injection), farm CA-02) was 35.3%, the “P/AI, % (n/n)” value ([4]; Ovsynch (one injection), farm CA-O3) was 30.4% and the “P/AI, % (n/n)” value ([4]; Ovsynch (one injection), farm NM-04) was 35.2%. The “P/AI, % (n/n)” value ([4]; Ovsynch (one injection), farm NY-05) was 32.7%, the “P/AI, % (n/n)” value ([4]; Ovsynch (one injection), farm NY-06) was 29.4% and the “P/AI, % (n/n)” value ([4]; Ovsynch (one injection), farm PA-07) was 39.2%. The “P/AI, % (n/n)” value ([4]; Ovsynch (one injection), farm TX-08) was 37.7%, the “P/AI, % (n/n)” value ([4]; Ovsynch (one injection), farm WI-09) was 28.1% and the “P/AI, % (n/n)” value ([4]; Ovsynch (one injection), farm WI-10) was 35.3%. For the same compound, the “P/AI, % (n/n)” value ([4]; Ovsynch (one injection), farm WI-11) was 26.9%, the “P/AI, % (n/n)” value ([4]; Ovsynch + second cloprostenol sodium injection, farm CA-01) was 36.4% and the “percentage of cows pregnant per AI” value ([4]; Ovsynch + second injection, All Multiparous) was 35.42 (288/813) %. For the same compound, the “percentage of cows pregnant per AI” value ([4]; Ovsynch + second injection, Fourth or Greater lactation) was 30.36 (68/224) %, the “percentage of cows pregnant per AI” value ([4]; Ovsynch + second injection, Primiparous) was 38.22 (99/259) % and the “percentage of cows pregnant per AI” value ([4]; Ovsynch + second injection, Second and Third lactation) was 37.35 (220/589) %. For the same compound, the “P/AI, % (n/n)” value ([4]; Ovsynch + second injection, Total of 11 farms) was 36.1%, the “P/AI, % (n/n)” value ([4]; Ovsynch + second injection, farm CA-02) was 39.8% and the “P/AI, % (n/n)” value ([4]; Ovsynch + second injection, farm CA-O3) was 34.1%. The “P/AI, % (n/n)” value ([4]; Ovsynch + second injection, farm NM-04) was 37.7%, the “P/AI, % (n/n)” value ([4]; Ovsynch + second injection, farm NY-05) was 31.2% and the “P/AI, % (n/n)” value ([4]; Ovsynch + second injection, farm NY-06) was 42.0%. For the same compound, the “P/AI, % (n/n)” value ([4]; Ovsynch + second injection, farm PA-07) was 43.6%, the “P/AI, % (n/n)” value ([4]; Ovsynch + second injection, farm TX-08) was 29.8% and the “P/AI, % (n/n)” value ([4]; Ovsynch + second injection, farm WI-09) was 40.4%. For the same compound, the “P/AI, % (n/n)” value ([4]; Ovsynch + second injection, farm WI-10) was 37.0%, the “P/AI, % (n/n)” value ([4]; Ovsynch + second injection, farm WI-11) was 26.9% and the “Effect of second cloprostenol sodium injection, Difference in P/AI” value ([4]; Second and Third lactation) was “+14.19% (P = 0.047)”. The “Effect of second cloprostenol sodium injection, relative difference in P/AI” value (“Effect … relative difference in P/AI” below) ([4]; Total of 11 farms) was “+8.50%”, the “Effect … relative difference in P/AI” value ([4]; farm CA-01) was “+23.64%” and the “Effect … relative difference in P/AI” value ([4]; farm CA-02) was “+12.99%”. The “Effect … relative difference in P/AI” value ([4]; farm CA-O3) was “+12.03%”, the “Effect … relative difference in P/AI” value ([4]; farm NM-04) was “+7.04%” and the “Effect … relative difference in P/AI” value ([4]; farm NY-05) was −4.47%. The “Effect … relative difference in P/AI” value ([4]; farm NY-06) was “+43.11%”, the “Effect … relative difference in P/AI” value ([4]; farm PA-07) was “+10.98%” and the “Effect … relative difference in P/AI” value ([4]; farm TX-08) was −20.86%. The “Effect … relative difference in P/AI” value ([4]; farm WI-09) was “+43.75%”, the “Effect … relative difference in P/AI” value ([4]; farm WI-10) was −4.94% and the “Effect … relative difference in P/AI” value ([4]; farm WI-11) was 0.0%. The “Effect of second cloprostenol sodium injection, Difference in P/AI” value ([4]; primiparous) was “+3.10% (P = 0.393)”.

For prostaglandin F2α [PGF], the “% of cows with CL regression” value ([1]; cows that ovulated to the first GnRH) is listed as 79.4%, the “% of cows not having complete CL regression” value ([1]; cows with a d7 and a d14 CL) is listed as 8.2% and the “% of cows not having complete CL regression” value ([1]; cows with a single d7 CL) is listed as 35.6%. For the same compound, the “% of cows not having complete CL regression” value ([1]; cows with a single d14 CL) was 3.0%, the “% of cows with CL regression” value ([1]; cows without ovulation to the first GnRH) was 93% and the “percentage of cows with complete CL regression (<0.4 ng/mL 56 hours after PGF2α)” value ([1]; one PGF2α treatment (day 7)) was 84.6%. The “% of cows with complete CL regression (<0.4 ng/mL at 56 hours after PGF2α)” value ([1]; resynchronized at 32 days after TAI with Ovsynch (Resynch-32)) was 83.7%, the “% of cows with complete CL regression (<0.4 ng/mL at 56 hours after PGF2α)” value ([1]; resynchronized with Double-Ovsynch) was 89.1% and the “% of cows with lack of complete / inadequate CL regression” value ([1]; single PGF2α treatment, Ovsynch-type protocols, literature) was 10 to 25% and 10-25%. The “percentage of cows with complete CL regression (<0.4 ng/mL 56 hours after PGF2α)” value ([1]; two PGF2α treatments (day 7 and day 8)) was 95.6%, the “improvement in fertility in first service cows, two vs. one PGF2α” value ([2]; 7 day Ovsynch, not statistically significant) was 5.7% and the “fertility in first service cows” value ([2]; one PGF2α treatment, 7 day Ovsynch) was 47.0%. The “fertility in first service cows” value ([2]; two PGF2α treatments, 7 day Ovsynch) was 52.7%, the “effect of the second PGF on P/AI” value ([3]; primiparous cows) was “no effect” and the “Effect … relative difference in P/AI” value ([4]; Total of 11 farms) was 8.5%. For the same compound, the “absolute improvement in fertility due to the second PGF treatment” value ([4]; all results combined, 11 farms) was ~3%.

— patent US20170065667A1, “METHODS FOR SYNCHRONIZATION OF ESTROUS CYCLES AND OVULATION FOR FIXED TIME ARTIFICIAL INSEMINATION IN CATTLE” (Parnell Technologies Pty Ltd., priority 2014, published 2017)
